# Measurements: patent publication US12084411B2, “Hinokitiol analogues, methods of preparing and pharmaceutical compositions thereof” (The Board of Trustees of the University of Illinois, priority 2018, dated 2024)
# Experiments:
# fet3Δftr1Δ yeast = assay: Metal selectivity in yeast (ICP-MS); format: cell-based, Saccharomyces cerevisiae; conditions: 10 μM hinokitiol, 100 μM FeCl3
# Method: Hinokitiol-mediated changes in intracellular metal levels were determined using growth rescue conditions from FIG. 13H and an adaptation of the Fe uptake study in FIG. 1G. Specifically, wild type and fet3Δftr1Δ yeast were grown in YPD media overnight, rinsed, and incubated in SD media without FeCl3 at 30° C. for 3 hours. Yeast were then resuspended at an OD600=0.50 in SD media (50 mM MES/Tris, pH=7.0) containing 100 μM FeCl3 and either DMSO vehicle or 10 μM hinokitiol. After 2.5 hours of incubation, cells were centrifuged at 5° C., rinsed twice with cold 10 mM EDTA in 50 mM Tris/HCl buffer (pH=6.5), and once with cold metal-free water. Cells were then lyophilized for 48 hours. The lyophilized cells were digested with a 5:1 mixture of HNO3:HCl and then subjected to an automated sequential microwave digestion in a CEM Discover SP-D microwave digester. The resulting clear solution was diluted in metal-free water, and elemental analysis was performed by ICP-MS.
# [1] = Electrochemical studies (cyclic voltammetry) of iron:chelator complexes; format: physicochemical
# Method: Potentiostatic electrochemical methods were performed on a CH Instruments electrochemical workstation (model 760 C, Austin, TX) on a three-electrode cell. Hg working electrodes were fabricated by the electrodeposition of Hg on a Pt wire utilizing the procedure previously described by Barton et al. (70). All experiments were reported versus a Ag/AgCl reference electrode and utilized a graphite auxiliary electrode. The electrolyte was sparged with UHP argon before measurements. A positive pressure of argon was maintained throughout the experiments.
# Unless otherwise indicated, experiments used a 0.1 M Tris buffer in H2O or 1:1 MeOH:H2O at pH=7.2 using HNO3 and KOH as titrant. Unless otherwise indicated, experiments used a 100 mV/s scan rate, 100 μM Fe(NO3)3, and 500 μM small molecule. All redox potentials are recorded versus a normal hydrogen electrode (NHE).
# The estimated redox potential of Fe(Hino)n was determined through extrapolation of the best-fit line of the determined redox potentials of Fe(Hino)n as a function of the concentration of MeOH in the 0.1 M Tris buffer at pH=7.2.
# [2] = Rate of iron (III) reduction; format: physicochemical; conditions: 62.5 mM ascorbate buffer
# Method: The rate of iron (III) reduction in the absence or presence of hinokitiol was determined using ferrozine to quantify the concentration of iron (II) similar to previously described (71). […] The absorbance at 562 nm, corresponding to Fe(ferrozine)3, was determined at the indicated time points.
# [3] = system: FPN1-deficient Caco-2 monolayers; assay: 55Fe uptake and transport in FPN1-deficient Caco-2 monolayers; format: cell-based, Human; conditions: 1 μM
# Method: To knockdown FPN1 levels in wild type Caco-2 cells, the differentiated epithelial monolayers were incubated with 150 μM quercetin (Sigma 337951) for 18 hours in Caco-2 Complete media containing G418 similar to previously described (40). To knockdown FPN1 levels in shControl and shDMT1 Caco-2 monolayers, incubation was performed as above except with 250 μM quercetin. After completion of the incubation, the apical and basolateral fluid was aspirated and rinsed with PBS before ^55Fe transport and uptake were determined as described above.
# TMEM14CΔ MEL cells = assay: Hemoglobinization of TMEM14C-deficient MEL cells; format: cell-based, mouse; conditions: 1 μM
# Method: Cells were then incubated at 37° C. for 72 hours unless otherwise noted. […] Hemoglobinized MEL cells were quantified three days after DMSO induction through o-dianisidine staining similar to previously reported (74). Cells were centrifuged three days after induction and rinsed with PBS. […] Cells were then imaged on an AXIO Zoom […] microscope to obtain color images. The number of stained cells were then quantified via ImageJ analysis and compared to the number of total cells in each image. To determine that hinokitiol requires DMSO induction for hemoglobinization, 2% DMSO was not added at the beginning of the experiment before a 72-hour incubation and o-dianisidine staining.
# [4] = system: wild type J774 macrophages; assay: 55Fe release from wild type J774 macrophages; format: cell-based, mouse; conditions: same concentration as in deficient system
# Method: J774 cells were grown in 12-well plates to ˜80% confluency. The cells were then treated with vehicle or hepcidin in fresh J774 Complete media (1 mL) and incubated at 37° C. for 1 hour. After incubation, the media was aspirated, and then a ^55Fe2Tf (50 nM) solution in J774 Complete media (1 mL) containing vehicle or hepcidin was added. The cells were incubated at 37° C. for 10 minutes, and the media was removed. The cells were rinsed with PBS (×2), and then rinsed with J774 Complete media (1 mL) for 10 minutes at 37° C. The media was aspirated, and J774 Complete media (1 mL) containing DMSO or small molecule (5 μM unless otherwise noted, 1000X dilution) was then added in the presence or absence of hepcidin. At the indicated times, aliquots (<100 μL) of the media were removed, diluted in scintillation cocktail, and radioactivity was determined by liquid scintillation counting. After completion of the experiment, the media was removed, the cells were rinsed with PBS, and the cells were lysed with 500 μL of 200 mM NaOH at 37° C. for 2 hours with continuous shaking (50 rpm). The cell lysate was diluted in scintillation cocktail and intracellular ^55Fe levels were determined by liquid scintillation counting. The % ^55Fe release was determined by the ratio of extracellular ^55Fe to total (intracellular+ extracellular) ^55Fe at the indicated times.
# [5] = system: FPN1-deficient Flatiron (ffe/+) mice; assay: 59Fe gut absorption in Flatiron mice; format: in vivo; conditions: 1.5 mg/kg, oral gavage, after one and two hours
# Method: (§1) Temporal live cell imaging of labile iron levels in shDMT1 Caco-2 monolayers was performed after staining of Caco-2 monolayers with calcein green-AM (5 μM) in the apical and basolateral liquid for 30 minutes in pH=7.4 DMEM. […] Final volume administered was 1.5 mL/kg for each mouse, correcting for individual body weight. […] […] Radioactivity was quantified by gamma counting and calculated as the percentage of gavaged dose (±SEM). Experiments were performed with 4 genotyped-matched mice/day; preliminary analysis determined there were no gender effects on uptake of ^59Fe after intragastric gavage; mixed genders were used in the experiments shown.
# wild type (+/+) mice = assay: 59Fe gut absorption in wild type mice; format: in vivo; conditions: 1.5 mg/kg, after one hour
# Method: as §1
compound,measurement,setting,value
CC(C)c1cccc(=O)c(O)c1 [hinokitiol],intracellular iron levels relative to vehicle-treated controls,fet3Δftr1Δ yeast,increased
same,"intracellular levels of manganese, cobalt, nickel, zinc, and copper",fet3Δftr1Δ yeast,unchanged
same,E^0 1:1 MeOH:H2O,"[1]; Table 2, 0.1 M Tris, pH 7.2",−211 mV vs. N.H.E.
same,"E^0 Aqueous, estimated from MeOH standard curve",[1]; extrapolation of E^01 vs. MeOH concentration,−361^¶ mV vs. N.H.E.
same,reduction of iron (III) in a reducing environment,[2],slowed
same,iron uptake,[3],without affecting iron uptake
same,monolayer integrity (TEER),[3],nor disrupting monolayer integrity
same,transepithelial iron transport,[3],restored transepithelial iron transport
same,hemoglobinization,TMEM14CΔ MEL cells,did not promote hemoglobinization
same,effect on iron release in wild type system,[4],negligible effects
same,59Fe absorption,[5],increased ^59Fe absorption
same,rate of iron absorption,wild type (+/+) mice,statistically significant increase
